Test results published in publication PMC12821709, “Biomimetic Chromatography as a High-Throughput Tool for Screening Bioaccumulation and Acute Aquatic Toxicity of Pesticides” (Journal of Xenobiotics, 2025).
Values after ≈ are worked out from the molar mass of the structure shown. Read-outs that look alike come from different tables or passages of the source.

Assays:
[1] = format: physicochemical
Description: All biochromatographic experiments were performed using the gradient IAM protocols developed by Valkó and co-workers and previously implemented in this laboratory. Analyses were carried out on a Prominence-i LC-2030C 3D HPLC system (Shimadzu, Tokyo, Japan) controlled by LabSolutions software (v6.81, Kyoto, Japan) and equipped with an IAM.PC.DD2 column (10 × 4.6 mm, 10.0 µm) packed on the newer ‘Type B’ silica support and protected by a guard column (Regis Technologies, Morton Grove, IL, USA).
Mobile phase A consisted of 50 mM ammonium acetate (VWR International, Leuven, Belgium) in water, adjusted to physiological pH 7.4 with concentrated ammonia solution (Avantor Performance Materials Poland S.A., Gliwice, Poland). Ultrapure water with a resistivity of 18.2 MΩ was obtained from a Milli-Q water purification system (Merck Millipore, Darmstadt, Germany). For phospholipid affinity measurements, mobile phase B was HPLC-grade acetonitrile (Chempur, Piekary Śląskie, Poland). A linear gradient from 0 to 85% B was applied over 5.25 min, followed by an isocratic hold at 85% B for 0.5 min. The mobile phase flow rate was set at 1.5 mL/min, and the column temperature was maintained at 30 °C.
The reference substances used to calculate CHIIAM values were obtained as follows: acetanilide, butyrophenone and octanophenone from Alfa Aesar (Haverhill, MA, USA); acetophenone and paracetamol from Sigma-Aldrich (Steinheim, Germany); and heptanophenone, hexanophenone, propiophenone and valerophenone from Acros Organics (Pittsburgh, PA, USA).
Dimethyl sulfoxide (Avantor Performance Materials Poland S.A., Gliwice, Poland) was used to dissolve the analytes and to prepare stock solutions at a concentration of 200 µg/mL. UV detection was performed in the range 190–300 nm. The injection volume was 5 µL. Each compound was analyzed in duplicate, and the variation in retention times was lower than 2%. Raw retention times for the pesticides and reference standards are available in Zenodo platform https://doi.org/10.5281/zenodo.17672582.

[2] = test system: Daphnia magna; conditions: cited from earlier work
[3] = test system: rainbow trout (Oncorhynchus mykiss); conditions: 96 h, ref Pesticide Properties DataBase (PPDB; University of Hertfordshire), cited from earlier work
[4] = test system: fish; conditions: cited from earlier work
[5] = IAM.PC.DD2 column, gradient 0-85% acetonitrile, 50 mM ammonium acetate pH 7.4, 30 °C
[6] = 48 h, Daphnia magna, ref Pesticide Properties DataBase (PPDB; University of Hertfordshire)
[7] = in fish, dimensionless, ref Pesticide Properties DataBase (PPDB; University of Hertfordshire)

| SMILES | CHIIAM (IAM chromatographic hydrophobicity index) [1, 5] | EC50 Daphnia [2, 6] [ng/mL] | LC50 Fish [3] [µg/mL] | BCF (bioconcentration factor) [4, 7] | also measured |
| --- | --- | --- | --- | --- | --- |
| COP(=S)(OC)Oc1ccc([N+](=O)[O-])c(C)c1 [Fenitrothion, fenitrothion] | 38.1 | 8.6 (≈ 0.031 µM) | 1.3 (≈ 4.69 µM) | 29 |  |
| COc1c(Cl)ccc(Cl)c1C(=O)O [Dicamba, dicamba] |  |  | 100 (≈ 452 µM) |  | CHIIAM (IAM chromatographic hydrophobicity index) ([1]; pH 7.4): 8.2; EC50 Daphnia ([2]; in vivo): 41000 ng/mL (≈ 185 µM); BCF (bioconcentration factor) ([4]; in vivo): 15 |
| CCCC1COC(Cn2cncn2)(c2ccc(Cl)cc2Cl)O1 (stereo not drawn) [Propiconazole, propiconazole] | 38.7 | 10200 (≈ 29.8 µM) | 2.6 (≈ 7.6 µM) | 116 |  |
| CCOP(=S)(OCC)Oc1cc(C)nc(C(C)C)n1 [Diazinon, diazinon] | 39.3 | 1 (≈ 0.00329 µM) | 3.1 (≈ 10.2 µM) | 500 | EC50 Daphnia ([2]; 48 h, Daphnia magna, ref Pesticide Properties DataBase (PPDB; University of Hertfordshire), listed as diazinon): 0.1 to 1 ng/mL |
| O=[N+]([O-])NC1=NCCN1Cc1ccc(Cl)nc1 [Imidacloprid, imidacloprid] | 14.2 | 85000 (≈ 332 µM) | 83 (≈ 325 µM) | 0.61 | BCF (bioconcentration factor) ([4]; in fish, dimensionless, ref Pesticide Properties DataBase (PPDB; University of Hertfordshire), listed as imidacloprid): ≈ 0.6 |
| CC1(C)C(C=C(Cl)Cl)C1C(=O)OCc1cccc(Oc2ccccc2)c1 (stereo not drawn) [Permethrin, permethrin] | 54.8 | 0.6 (≈ 0.00153 µM) | 0.0125 (≈ 0.0319 µM) | 300 |  |
| CC(C)C1(C)N=C(c2ncccc2C(=O)O)NC1=O (stereo not drawn) [Imazapyr, imazapyr] | −12.1 | 100000 (≈ 383 µM) | 100 (≈ 383 µM) | 2.54 | EC50 Daphnia ([2]; 48 h, Daphnia magna, ref Pesticide Properties DataBase (PPDB; University of Hertfordshire), listed as imazapyr): ≈ 100 mg/L |
| CC1(C)C(C(=O)OC(C#N)c2cccc(Oc3ccccc3)c2)C1(C)C (stereo not drawn) [Fenpropathrin, fenpropathrin] | 48.6 | 0.53 (≈ 0.00152 µM) | 0.0023 (≈ 0.00658 µM) | 1100 | LC50 Fish ([3]; listed as fenpropathrin): ≈ 0.0023 mg/L |
| Cc1c(COC(=O)[C@@H]2[C@H](/C=C(\Cl)C(F)(F)F)C2(C)C)cccc1-c1ccccc1 (racemic) [Bifenthrin, bifenthrin] | 54.4 | 0.11 (≈ 0.00026 µM) | 0.00026 (≈ 0.000615 µM) | 1703 | CHIIAM (IAM chromatographic hydrophobicity index) ([1]; IAM.PC.DD2 column, gradient 0-85% acetonitrile, 50 mM ammonium acetate pH 7.4, 30 °C, listed as bifenthrin): > 48; LC50 Fish ([3]; listed as bifenthrin): ≈ 0.00026 mg/L |
| O=C(Nc1ccccc1-c1ccc(Cl)cc1)c1cccnc1Cl [Boscalid, boscalid] | 38.0 | 5330 (≈ 15.5 µM) | 2.7 (≈ 7.87 µM) | 107 | BCF (bioconcentration factor) ([4]; in fish, dimensionless, ref Pesticide Properties DataBase (PPDB; University of Hertfordshire), listed as boscalid): ≈ 107 |
| CC(C)(C)C(O)(CCc1ccc(Cl)cc1)Cn1cncn1 (stereo not drawn) [Tebuconazole, tebuconazole] | 39.5 | 2790 (≈ 9.06 µM) | 4.4 (≈ 14.3 µM) | 78 |  |
| N#Cc1c[nH]cc1-c1cccc2c1OC(F)(F)O2 [Fludioxonil, fludioxonil] | 43.5 | 400 (≈ 1.61 µM) | 0.23 (≈ 0.927 µM) | 336 |  |
| COP(=S)(OC)SCn1nnc2ccccc2c1=O [Azinphos-methyl, azinphos-methyl] |  | 1.1 (≈ 0.00347 µM) |  | 40 |  |
| CO/C=C(/C(=O)OC)c1ccccc1Oc1cc(Oc2ccccc2C#N)ncn1 [Azoxystrobin, azoxystrobin] | 31.6 | 230 (≈ 0.57 µM) | 0.47 (≈ 1.17 µM) |  |  |
| CCOP(=S)(OCC)Oc1nc(Cl)c(Cl)cc1Cl [Chlorpyrifos, chlorpyrifos] | 48.1 | 0.1 (≈ 0.000285 µM) | 0.025 (≈ 0.0713 µM) | 1374 | EC50 Daphnia ([2]; 48 h, Daphnia magna, ref Pesticide Properties DataBase (PPDB; University of Hertfordshire), listed as chlorpyrifos): 0.1 to 1 ng/mL |
| CCNc1nc(Cl)nc(NC(C)C)n1 [Atrazine, atrazine] | 27.4 | 85000 (≈ 394 µM) | 4.5 (≈ 20.9 µM) | 4.3 | EC50 Daphnia ([2]; 48 h, Daphnia magna, ref Pesticide Properties DataBase (PPDB; University of Hertfordshire), listed as atrazine): ≈ 85 mg/L |
| CCNc1nc(Cl)nc(NC(C)(C)C)n1 [Terbuthylazine, terbuthylazine] | 34.3 | 21200 (≈ 92.3 µM) | 2.2 (≈ 9.58 µM) | 34 | BCF (bioconcentration factor) ([4]; in fish, dimensionless, ref Pesticide Properties DataBase (PPDB; University of Hertfordshire), listed as terbuthylazine): ≈ 34 |
| C/C(=N\C#N)N(C)Cc1ccc(Cl)nc1 [Acetamiprid, acetamiprid] | 13.4 | 49800 (≈ 224 µM) | 100 (≈ 449 µM) |  |  |
| CNC(=O)Oc1cccc2ccccc12 [Carbaryl, carbaryl] |  | 6.4 (≈ 0.0318 µM) |  | 44 | EC50 Daphnia ([2]; 48 h, Daphnia magna, ref Pesticide Properties DataBase (PPDB; University of Hertfordshire), listed as carbaryl): ≈ 0.0064 mg/L |
